Data on 26 compounds can be found in patent publication US11168095B2, “ASK1 inhibiting agents” (BIOGEN MA INC., priority 2017, dated 2021).

For orientation: IC50 means the midpoint of a concentration-inhibition curve.

One test has as its target ASK1/MAP3K5 (Homo sapiens (Human), UniProt Q99683). In words: ASK1/MAP3K5 assay by Reaction Biology Corp. It counts as biochemical. How it is done: ASK1/MAP3K5 was used as the protein kinase and 20 μM of myelin basic protein (MBP) and 10 μM ATP were used as the substrate.
The target in test [1] is ASK1 T838 auto phosphorylation in HEK-293T cells (Homo sapiens (Human), UniProt Q99683). In words: ASK1 (AUTO PHOS T838) assay, MSD format. The test is classed as cell-based.
Chain of ASK1 T838 auto phosphorylation in HEK-293T cells (Q99683 whole entry): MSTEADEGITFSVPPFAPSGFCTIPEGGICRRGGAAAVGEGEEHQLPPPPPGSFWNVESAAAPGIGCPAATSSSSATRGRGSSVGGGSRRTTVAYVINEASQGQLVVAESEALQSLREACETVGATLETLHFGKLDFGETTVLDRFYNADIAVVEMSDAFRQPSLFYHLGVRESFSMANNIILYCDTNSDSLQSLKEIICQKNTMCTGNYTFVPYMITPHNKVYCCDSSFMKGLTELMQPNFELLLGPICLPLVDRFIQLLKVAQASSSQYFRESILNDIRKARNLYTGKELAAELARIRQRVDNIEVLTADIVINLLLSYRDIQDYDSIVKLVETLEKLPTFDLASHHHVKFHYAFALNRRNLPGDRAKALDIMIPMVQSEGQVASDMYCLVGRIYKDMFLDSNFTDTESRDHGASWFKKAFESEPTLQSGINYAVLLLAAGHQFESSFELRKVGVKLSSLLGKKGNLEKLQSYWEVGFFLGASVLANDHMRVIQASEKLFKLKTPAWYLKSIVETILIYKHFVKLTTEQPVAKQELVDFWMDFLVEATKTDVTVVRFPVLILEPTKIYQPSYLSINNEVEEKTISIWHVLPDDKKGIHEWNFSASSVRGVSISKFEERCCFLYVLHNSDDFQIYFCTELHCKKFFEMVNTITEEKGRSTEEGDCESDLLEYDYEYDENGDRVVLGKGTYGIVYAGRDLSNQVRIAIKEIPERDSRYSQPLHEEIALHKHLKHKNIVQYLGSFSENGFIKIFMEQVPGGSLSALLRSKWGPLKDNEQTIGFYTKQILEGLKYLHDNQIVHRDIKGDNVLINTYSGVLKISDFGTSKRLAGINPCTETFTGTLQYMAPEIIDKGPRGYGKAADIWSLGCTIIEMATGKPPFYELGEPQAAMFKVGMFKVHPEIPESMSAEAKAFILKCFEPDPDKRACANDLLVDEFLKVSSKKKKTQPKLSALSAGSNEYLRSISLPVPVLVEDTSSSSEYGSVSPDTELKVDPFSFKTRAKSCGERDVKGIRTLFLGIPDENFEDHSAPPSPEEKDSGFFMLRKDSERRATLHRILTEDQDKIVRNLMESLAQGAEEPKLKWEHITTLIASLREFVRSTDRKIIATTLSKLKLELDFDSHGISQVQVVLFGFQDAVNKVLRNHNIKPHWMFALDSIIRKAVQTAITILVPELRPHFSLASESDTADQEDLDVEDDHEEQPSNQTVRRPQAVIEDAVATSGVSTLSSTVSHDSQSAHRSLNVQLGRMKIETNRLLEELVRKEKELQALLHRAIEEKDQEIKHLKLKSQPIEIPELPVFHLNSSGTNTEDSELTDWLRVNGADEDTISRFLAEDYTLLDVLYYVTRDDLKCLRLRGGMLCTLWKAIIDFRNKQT
[2] abbreviates: HEK 293T cells transfected with ASK1-V5 full length plasmid, compounds 1 hr at 37° C., read-out: IC50.
[3] abbreviates: 20 μM myelin basic protein (MBP), 10 μM ATP.

Read-outs that look alike come from different tables or passages of the source. Some results are limits rather than exact numbers.

Chain of ASK1/MAP3K5 (Q99683 whole entry): as above

Take `Cc1cn(-c2cc3c(cc2F)OCCC[C@H](C)n2cnnc2-c2cccc(n2)NC3=O)cn1` [Example 113, (S)-5^4−Fluoro-10-methyl-5^5-(4-methyl-1H-imidazol-1-yl)-1^4H-6-oxa-3-aza-2(2,6)-pyridina-1(3,4)-triazola-5(1,2)-benzenacyclodecaphan-4-one]: the 50% inhibitory concentration (IC50) on ASK1/MAP3K5 is < 100 nM; in test [1] (setting [2]) it was < 1000 nM.
Turning to `C[C@H]1CCCOc2cc(F)c(-c3cnn(C)c3)cc2C(=O)Nc2cccc(n2)-c2nncn21` [Example 114, (S)-5^4-Fluoro-10-methyl-5^5-(1-methyl-1H-pyrazol-4-yl)-1^4H-6-oxa-3-aza-2(2,6)-pyridina-1(3,4)-triazola-5(1,2)-benzenacyclodecaphan-4-one], the IC50 against ASK1/MAP3K5 (setting [3]) is < 100 nM; in test [1] (setting [2]), < 1000 nM.
For `C[C@H]1CCCOc2cc(F)c(-c3cnn(CCN(C)C)c3)cc2C(=O)Nc2cccc(n2)-c2nncn21` [Example 115, (S)-5^5-(1-(2-(Dimethylamino)ethyl)-1H-pyrazol-4-yl)-5^4-fluoro-10-methyl-1^4H-6-oxa-3-aza-2(2,6)-pyridina-1(3,4)-triazola-5(1,2)-benzenacyclodecaphan-4-one] the same measures were < 100 nM and < 1000 nM.
For `C[C@H]1CCCOc2cc(F)c(OCCN(C)C)cc2C(=O)Nc2cccc(n2)-c2nncn21` [Example 116, (S)-5^5-(2-(Dimethylamino)ethoxy)-5^4-fluoro-10-methyl-1^4H-6-oxa-3-aza-2(2,6)-pyridina-1(3,4)-triazola-5(1,2)-benzenacyclodecaphan-4-one], the results for the half-inhibitory concentration (IC50) (at ASK1/MAP3K5; in test [1] (setting [2])) were < 100 nM and < 1000 nM, respectively.
Turning to `COCCOc1cc2c(cc1F)OCCC[C@H](C)n1cnnc1-c1cccc(n1)NC2=O` [Example 117, (S)-5^4-Fluoro-5^5-(2-methoxyethoxy)-10-methyl-1^4H-6-oxa-3-aza-2(2,6)-pyridina-1(3,4)-triazola-5(1,2)-benzenacyclodecaphan-4-one], the IC50 is < 100 nM at ASK1/MAP3K5 (setting [3]) and < 1000 nM in test [1] (setting [2]).
On the same counts, the results for `C[C@H]1CCCOc2cc(F)c(C#N)cc2C(=O)Nc2cccc(n2)-c2nncn21` [Example 118, (S)-5^4-Fluoro-10-methyl-4-oxo-1^4H-6-oxa-3-aza-2(2,6)-pyridina-1(3,4)-triazola-5(1,2)-benzenacyclodecaphane-5^5-carbonitrile] are < 100 nM and < 1000 nM.
For `C[C@H]1CCCOc2cc(S(C)(=O)=O)c(Br)cc2C(=O)Nc2cccc(n2)-c2nncn21` [Example 119, (S)-5^5-Bromo-10-methyl-5^4-(methylsulfonyl)-1^4H-6-oxa-3-aza-2(2,6)-pyridina-1(3,4)-triazola-5(1,2)-benzenacyclodecaphan-4-one] the same measures were < 100 nM and < 1000 nM.
Turning to `C[C@H]1CCCOc2cc(N3CCN(C)CC3)ccc2C(=O)Nc2cccc(n2)-c2nncn21` [Example 122, (S)-10-Methyl-5^4-(4-methylpiperazin-1-yl)-1^4H-6-oxa-3-aza-2(2,6)-pyridina-1(3,4)-triazola-5(1,2)-benzenacyclodecaphan-4-one], the IC50 at ASK1/MAP3K5 (setting [3]) is < 100 nM; in test [1] (setting [2]), < 1000 nM.
For `C[C@@H]1CCCOc2cc(N3CCN(C)CC3)ccc2C(=O)Nc2cccc(n2)-c2nncn21` [Example 123, (R)-10-Methyl-5^4-(4-methylpiperazin-1-yl)-1^4H-6-oxa-3-aza-2(2,6)-pyridina-1(3,4)-triazola-5(1,2)-benzenacyclodecaphan-4-one] the same measures were 1000 to 10000 nM and 1000 to 10000 nM.
On the same counts, the results for `C[C@H]1CCOc2cc(F)c(Br)cc2C(=O)Nc2cccc(n2)-c2nncn2C1` [Example 124, (S)-5^5-Bromo-5^4-fluoro-9-methyl-1^4H-6-oxa-3-aza-2(2,6)-pyridina-1(3,4)-triazola-5(1,2)-benzenacyclodecaphan-4-one] are < 100 nM and < 1000 nM.
On the same counts, the results for `C[C@@H]1CCOc2cc(F)c(Br)cc2C(=O)Nc2cccc(n2)-c2nncn2C1` [Example 125, (R)-5^5-Bromo-5^4-fluoro-9-methyl-1^4H-6-oxa-3-aza-2(2,6)-pyridina-1(3,4)-triazola-5(1,2)-benzenacyclodecaphan-4-one] are 100 to 1000 nM and 1000 to 10000 nM.
With `C[C@H]1CCOc2cc(F)c(C#CC3(C)COC3)cc2C(=O)Nc2cccc(n2)-c2nncn2C1` [Example 134, (S)-5^4-Fluoro-9-methyl-5^5-((3-methyloxetan-3-yl)ethynyl)-1^4H-6-oxa-3-aza-2(2,6)-pyridina-1(3,4)-triazola-5(1,2)-benzenacyclodecaphan-4-one], the IC50 is < 100 nM against ASK1/MAP3K5 and < 1000 nM in test [1].
`COCCOc1cc2c(cc1F)OCC[C@H](C)Cn1cnnc1-c1cccc(n1)NC2=O` [Example 135, (S)-5^4-Fluoro-5^5-(2-methoxyethoxy)-9-methyl-1^4H-6-oxa-3-aza-2(2,6)-pyridina-1(3,4)-triazola-5(1,2)-benzenacyclodecaphan-4-one]: the IC50 on ASK1/MAP3K5 (setting [3]) is < 100 nM; in test [1] (setting [2]), < 1000 nM.
On the same counts, the results for `C[C@H]1CCCn2cnnc2-c2cccc(n2)NC(=O)c2cc(Br)ccc2O1` [Example 136, (S)-5^5-Bromo-7-methyl-1^4H-6-oxa-3-aza-2(2,6)-pyridina-1(3,4)-triazola-5(1,2)-benzenacyclodecaphan-4-one] are < 100 nM and < 1000 nM.
For `C[C@@H]1CCCn2cnnc2-c2cccc(n2)NC(=O)c2cc(Br)ccc2O1` [Example 137, (R)-5^5-Bromo-7-methyl-1^4H-6-oxa-3-aza-2(2,6)-pyridina-1(3,4)-triazola-5(1,2)-benzenacyclodecaphan-4-one] the same measures were < 100 nM and 1000 to 10000 nM.
On the same counts, the results for `C[C@H]1CCCn2cnnc2-c2cccc(n2)NC(=O)c2cc(N3CCN(C)CC3)ccc2O1` [Example 140, (S)-7-Methyl-5^5-(4-methylpiperazin-1-yl)-1^4H-6-oxa-3-aza-2(2,6)-pyridina-1(3,4)-triazola-5(1,2)-benzenacyclodecaphan-4-one] are < 100 nM and < 1000 nM.
For `C[C@@H]1CCCn2cnnc2-c2cccc(n2)NC(=O)c2cc(N3CCN(C)CC3)ccc2O1` [Example 141, (R)-7-Methyl-5^5-(4-methylpiperazin-1-yl)-1^4H-6-oxa-3-aza-2(2,6)-pyridina-1(3,4)-triazola-5(1,2)-benzenacyclodecaphan-4-one], the values for the IC50 (against ASK1/MAP3K5 (setting [3]); in test [1] (setting [2])) were < 100 nM and < 1000 nM, respectively.
For `C[C@H]1CCCn2cnnc2-c2cccc(n2)NC(=O)c2cc(N3CCOCC3)ccc2O1` [Example 142, (S)-7-Methyl-5^5-morpholino-1^4H-6-oxa-3-aza-2(2,6)-pyridina-1(3,4)-triazola-5(1,2)-benzenacyclodecaphan-4-one], the half-maximal inhibitory concentration (IC50) was < 100 nM against ASK1/MAP3K5 (setting [3]) and < 1000 nM in test [1] (setting [2]).
On the same counts, the results for `C[C@@H]1CCCn2cnnc2-c2cccc(n2)NC(=O)c2cc(N3CCOCC3)ccc2O1` [Example 143, (R)-7-Methyl-5^5-morpholino-1^4H-6-oxa-3-aza-2(2,6)-pyridina-1(3,4)-triazola-5(1,2)-benzenacyclodecaphan-4-one] are < 100 nM and < 1000 nM.
Regarding `C[C@H]1CCCn2cnnc2-c2cccc(n2)NC(=O)c2cc(-c3ccncc3)ccc2O1` [Example 144, (S)-7-Methyl-5^5-(pyridin-4-yl)-1^4H-6-oxa-3-aza-2(2,6)-pyridina-1(3,4)-triazola-5(1,2)-benzenacyclodecaphan-4-one], the values for the IC50 (against ASK1/MAP3K5 (setting [3]); in test [1] (setting [2])) were < 100 nM and < 1000 nM, respectively.
As to `C[C@@H]1CCCn2cnnc2-c2cccc(n2)NC(=O)c2cc(-c3ccncc3)ccc2O1` [Example 145, (R)-7-Methyl-5^5-(pyridin-4-yl)-1^4H-6-oxa-3-aza-2(2,6)-pyridina-1(3,4)-triazola-5(1,2)-benzenacyclodecaphan-4-one], the figures for the IC50 (against ASK1/MAP3K5 (setting [3]); in test [1] (setting [2])) were < 100 nM and < 1000 nM, respectively.
On the same counts, the results for `C[C@H]1CCCn2cnnc2-c2cccc(n2)NC(=O)c2cc(-c3cnn(CCN(C)C)c3)ccc2O1` [Example 146, (S)-5^5-(1-(2-(Dimethylamino)ethyl)-1H-pyrazol-4-yl)-7-methyl-1^4H-6-oxa-3-aza-2(2,6)-pyridina-1(3,4)-triazola-5(1,2)-benzenacyclodecaphan-4-one] are < 100 nM and < 1000 nM.
For `C[C@@H]1CCCn2cnnc2-c2cccc(n2)NC(=O)c2cc(-c3cnn(CCN(C)C)c3)ccc2O1` [Example 147, (R)-5^5-(1-(2-(Dimethylamino)ethyl)-1H-pyrazol-4-yl)-7-methyl-1^4H-6-oxa-3-aza-2(2,6)-pyridina-1(3,4)-triazola-5(1,2)-benzenacyclodecaphan-4-one] the same measures were < 100 nM and < 1000 nM.
On to `Cc1cn(-c2ccc3c(c2)C(=O)Nc2cccc(n2)-c2nncn2CCC[C@H](C)O3)cn1` [Example 148, (S)-7-Methyl-5^5-(4-methyl-1H-imidazol-1-yl)-1^4H-6-oxa-3-aza-2(2,6)-pyridina-1(3,4)-triazola-5(1,2)-benzenacyclodecaphan-4-one], for which the values for the IC50 (against ASK1/MAP3K5; in test [1] (setting [2])) were < 100 nM and < 1000 nM, respectively.
As for `Cc1cn(-c2ccc3c(c2)C(=O)Nc2cccc(n2)-c2nncn2CCC[C@@H](C)O3)cn1` [Example 149, (R)-7-Methyl-5^5-(4-methyl-1H-imidazol-1-yl)-1^4H-6-oxa-3-aza-2(2,6)-pyridina-1(3,4)-triazola-5(1,2)-benzenacyclodecaphan-4-one], the IC50 at ASK1/MAP3K5 is < 100 nM; in test [1] (setting [2]), < 1000 nM.
Consider `C[C@H]1CCCn2cnnc2-c2cccc(n2)NC(=O)c2cc(C#N)ccc2O1` [Example 150, (S)-7-Methyl-4-oxo-1^4H-6-oxa-3-aza-2(2,6)-pyridina-1(3,4)-triazola-5(1,2)-benzenacyclodecaphane-5^5-carbonitrile], for which the IC50 is 100 to 1000 nM on ASK1/MAP3K5 (setting [3]) and < 1000 nM in test [1] (setting [2]).
